The source of these data is PubChem BioAssay (NCI).

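Results reflect a 48-hour exposure of cells in 96-well plates to compound at five concentrations. TGI is the concentration that stops growth completely.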

The first experiment relates to OVCAR-8 ovarian. Nature of the experiment: growth of human tumour cells (NCI), 48 h.
The compound `Cc1cc2ccccc2n2c1nc1ccccc12` yielded a TGI of over 100 µM.
With `CC1C2(C)OC(=N)C(C#N)(C(c3ccccc3)O2)C1(C#N)C#N` (stereo unspecified), the TGI was over 100 µM.
`[N-]=[N+]=Nc1ccccc1C(=O)N1C(=O)c2ccccc2C(=O)N(C(=O)c2ccccc2N=[N+]=[N-])c2ccccc21` displayed a TGI of over 100 µM.
With `COC1(OC)c2no[n+]([O-])c2CCC1O` (stereo unspecified), the TGI is over 100 µM.
The same measure, in the same setting: to `CN(C)Nc1cc(=O)[nH]c(=O)[nH]1` belongs over 100 µM; to `Clc1ccc(NCc2nnc(CCCCCCCCc3nnc(CNc4ccc(Cl)cc4)o3)o2)cc1`, over 100 µM; to `O=C(CC(=O)N(C(=O)/C=C\c1ccccc1)c1ccc(Cl)cc1)N1N=C(c2ccccc2)C(N=Nc2cccc([N+](=O)[O-])c2)C1=O` (stereo unspecified), over 100 µM.
Compound `Cc1cc(=O)[nH]c(-n2[nH]c(C)c(CCO)c2=O)n1` gave a TGI of over 100 µM.
Still for that read-out and setting: under `COc1ccc(Nc2nnc(-c3nsc4ccccc34)s2)cc1` stands over 100 µM.
Same read-out and setting: under `CCOC(=O)c1cnc2oc3ccc(O)cc3c2c1C` stands over 100 µM; under `CN(C)CCCSc1nc2ccccc2[nH]1`, over 100 µM.

The test system of another experiment is RXF 393 renal. Briefly: growth of human tumour cells (NCI), 48 h.
As to `Cc1ccc(S(=O)(=O)n2cc(-c3cc(C(F)(F)F)ccn3)c3cc(Br)ccc32)cc1`, the TGI came to 45.1 µM.
`Cc1cc2ccccc2n2c1nc1ccccc12`: the TGI was over 100 µM.
With `CC1C2(C)OC(=N)C(C#N)(C(c3ccccc3)O2)C1(C#N)C#N` (stereo unspecified), the TGI turned out to be 87.5 µM.
Consider `[N-]=[N+]=Nc1ccccc1C(=O)N1C(=O)c2ccccc2C(=O)N(C(=O)c2ccccc2N=[N+]=[N-])c2ccccc21`, for which the TGI came out at 76.6 µM.
`COC1(OC)c2no[n+]([O-])c2CCC1O` (stereo unspecified) yielded a TGI of over 100 µM.
Still for that read-out and setting: to `CN(C)Nc1cc(=O)[nH]c(=O)[nH]1` belongs over 100 µM; to `Clc1ccc(NCc2nnc(CCCCCCCCc3nnc(CNc4ccc(Cl)cc4)o3)o2)cc1`, over 100 µM.
For `O=C(CC(=O)N(C(=O)/C=C\c1ccccc1)c1ccc(Cl)cc1)N1N=C(c2ccccc2)C(N=Nc2cccc([N+](=O)[O-])c2)C1=O` (stereo unspecified), the TGI worked out at 36.9 µM.
Turning to `Cc1cc(=O)[nH]c(-n2[nH]c(C)c(CCO)c2=O)n1`, the TGI was over 100 µM.
In turn, `COc1ccc(Nc2nnc(-c3nsc4ccccc34)s2)cc1` returned a TGI of over 78.9 µM.
`CCOC(=O)c1cnc2oc3ccc(O)cc3c2c1C` yielded a TGI of over 100 µM.
In the case of `CN(C)CCCSc1nc2ccccc2[nH]1`, the TGI was over 100 µM.

The test system of the next experiment is SK-MEL-28 melanoma. Briefly: growth of human tumour cells (NCI), 48 h.
As for `Cc1ccc(S(=O)(=O)n2cc(-c3cc(C(F)(F)F)ccn3)c3cc(Br)ccc32)cc1`, the TGI stood at 62.6 µM.
In turn, `Cc1cc2ccccc2n2c1nc1ccccc12` showed a TGI of over 100 µM.
Take `[N-]=[N+]=Nc1ccccc1C(=O)N1C(=O)c2ccccc2C(=O)N(C(=O)c2ccccc2N=[N+]=[N-])c2ccccc21`: the TGI is over 100 µM.
On to `COC1(OC)c2no[n+]([O-])c2CCC1O` (stereo unspecified), for which the TGI was over 100 µM.
In turn, `CN(C)Nc1cc(=O)[nH]c(=O)[nH]1` had a TGI of over 100 µM.
Same read-out and setting: to `O=C(CC(=O)N(C(=O)/C=C\c1ccccc1)c1ccc(Cl)cc1)N1N=C(c2ccccc2)C(N=Nc2cccc([N+](=O)[O-])c2)C1=O` (stereo unspecified) belongs 98.1 µM; to `Cc1cc(=O)[nH]c(-n2[nH]c(C)c(CCO)c2=O)n1`, over 100 µM; to `COc1ccc(Nc2nnc(-c3nsc4ccccc34)s2)cc1`, over 100 µM.
Consider `CCOC(=O)c1cnc2oc3ccc(O)cc3c2c1C`, for which the TGI is over 100 µM.
Take `CN(C)CCCSc1nc2ccccc2[nH]1`: the TGI is over 100 µM.

For another experiment, the system named is SNB-19 CNS. Briefly: growth of human tumour cells (NCI), 48 h.
The compound `Cc1ccc(S(=O)(=O)n2cc(-c3cc(C(F)(F)F)ccn3)c3cc(Br)ccc32)cc1` had a TGI of 37.5 µM.
On the same count and under the same terms, under `Cc1cc2ccccc2n2c1nc1ccccc12` stands over 100 µM; under `CC1C2(C)OC(=N)C(C#N)(C(c3ccccc3)O2)C1(C#N)C#N` (stereo unspecified), over 100 µM.
In turn, `[N-]=[N+]=Nc1ccccc1C(=O)N1C(=O)c2ccccc2C(=O)N(C(=O)c2ccccc2N=[N+]=[N-])c2ccccc21` had a TGI of over 100 µM.
On the same count and under the same terms, under `COC1(OC)c2no[n+]([O-])c2CCC1O` (stereo unspecified) stands over 100 µM; under `CN(C)Nc1cc(=O)[nH]c(=O)[nH]1`, over 100 µM.
`Clc1ccc(NCc2nnc(CCCCCCCCc3nnc(CNc4ccc(Cl)cc4)o3)o2)cc1` yielded a TGI of over 100 µM.
`O=C(CC(=O)N(C(=O)/C=C\c1ccccc1)c1ccc(Cl)cc1)N1N=C(c2ccccc2)C(N=Nc2cccc([N+](=O)[O-])c2)C1=O` (stereo unspecified): the TGI was over 100 µM.
`Cc1cc(=O)[nH]c(-n2[nH]c(C)c(CCO)c2=O)n1` had a TGI of over 100 µM.
Regarding `COc1ccc(Nc2nnc(-c3nsc4ccccc34)s2)cc1`, the TGI was over 100 µM.
In the case of `CCOC(=O)c1cnc2oc3ccc(O)cc3c2c1C`, the TGI is over 100 µM.
On the same count and under the same terms, under `CN(C)CCCSc1nc2ccccc2[nH]1` stands over 100 µM.

For a further experiment, the system named is UACC-62 melanoma. Briefly: growth of human tumour cells (NCI), 48 h.
The compound `Cc1ccc(S(=O)(=O)n2cc(-c3cc(C(F)(F)F)ccn3)c3cc(Br)ccc32)cc1` came in with a TGI of 33.3 µM.
On the same count and under the same terms, under `Cc1cc2ccccc2n2c1nc1ccccc12` stands over 100 µM; under `CC1C2(C)OC(=N)C(C#N)(C(c3ccccc3)O2)C1(C#N)C#N` (stereo unspecified), 56.4 µM; under `[N-]=[N+]=Nc1ccccc1C(=O)N1C(=O)c2ccccc2C(=O)N(C(=O)c2ccccc2N=[N+]=[N-])c2ccccc21`, over 100 µM.
In turn, `COC1(OC)c2no[n+]([O-])c2CCC1O` (stereo unspecified) showed a TGI of over 100 µM.
Turning to `Clc1ccc(NCc2nnc(CCCCCCCCc3nnc(CNc4ccc(Cl)cc4)o3)o2)cc1`, the TGI was over 100 µM.
Regarding `O=C(CC(=O)N(C(=O)/C=C\c1ccccc1)c1ccc(Cl)cc1)N1N=C(c2ccccc2)C(N=Nc2cccc([N+](=O)[O-])c2)C1=O` (stereo unspecified), the TGI was found to be 42.1 µM.
The same measure, in the same setting: under `Cc1cc(=O)[nH]c(-n2[nH]c(C)c(CCO)c2=O)n1` stands over 100 µM.
Still for that read-out and setting: under `COc1ccc(Nc2nnc(-c3nsc4ccccc34)s2)cc1` stands over 100 µM; under `CCOC(=O)c1cnc2oc3ccc(O)cc3c2c1C`, over 100 µM; under `CN(C)CCCSc1nc2ccccc2[nH]1`, over 100 µM.
